In patent publication US8623820B2, “FGF-9 and its use relating to blood vessels” (University of Western Ontario, priority 2008, dated 2014):

Assays:
Sonic Hedgehog signaling = assay: Matrigel plug with cyclopamine, CD31 / SM α-actin immunostaining; assay type: in vivo, mice; details: FGF-2+FGF-9 plugs with 500 nM cyclopamine
Protocol: FIG. 15A. RT-PCR of human aortic SMCs stimulated with increasing concentrations of recombinant FGF-9 for 24 h. 15B, RT-PCR of human aortic SMCs overexpressing cDNA encoding GFP or FGF-9. 15C, Western Blots of C57/Bl6 dermal fibroblasts pretreated with either DMSO or 500 nM cyclopamine and subsequently stimulated with vehicle or FGF-9 for 24 hr. 15D. Photomicrographs of FGF-2 and FGF-9 containing matrigel plugs with either DMSO or cyclopamine double immunolabeled for CD31 (brown) and sm α-actin (red). E Quantitation of SM α-actin coverage of CD31-positive vessels representative of 6 mice bearing FGF-2 or FGF-2+FGF-9 with either vehicle or 500 nM cyclopamine (79±4 vs 38±4.8, p<0.05).

[1] = tested on: microvessels in matrigel plug; assay: Intravital vasoreactivity of matrigel plug microvessels; assay type: in vivo, mice; details: 14 days after matrigel injection
Protocol: 14 days after matrigel injection mice were anesthetized, the skin overlying a matrigel was surgically removed and a catheter to deliver drugs was sutured in the region of the plug. FITC-labeled dextran was injected via tail vein and the diameter of vessels in the matrigel plug was visualized using an inverted fluorescent microscope. Doses of vasoconstrictors indicated in FIG. 9 were applied and images of vessels were acquired over 5 minutes.
In separate experiments, doses of the vasoconstrictor PE followed by the vasodilator were applied to the blood vessels in matrigel plugs.

[2] = tested on: SM α-actin expressing mural cells at nascent microvessels; assay: Matrigel plug, CD31 / SM α-actin immunostaining of 8 μm sections; assay type: in vivo, C57/Bl6 mice; details: 8 days after implantation
Excerpt: Photomicrographs of 8 μm-thick sections of Matrigel plugs harvested 8 days after implantation into C57/Bl6 mice and immunostained for CD31 (brown) and smooth muscle α-actin (red) and quantification of the percentage of microvessels supported by smooth muscle (SM) α-actin positive cells.

[3] = tested on: SM α-actin positive cells on CD31 nascent blood vessels; assay: Matrigel plug, SM α-actin coverage of CD31-positive vessels in 200 μm sections; assay type: in vivo, mice; details: 200 μm thick sections, 8 days after implantation
Excerpt: Photomicrographs of Matrigel plugs harvested 8 days after implantation, cut into 200 μm thick-sections and immunostained for CD31 (left panel) and SM α-actin (central panel) and quantitation of SM α-actin coverage of CD31-positive vessels.

[4] = tested on: CD31-positive endothelial cell-lined microvessels; assay: Subcutaneous matrigel plug angiogenesis, CD31 immunostaining; assay type: in vivo, C57/Bl6 mice
Protocol: Matrigel plugs were mixed with either 500 ng/mL FGF-9, 500 ng/mL FGF-2 or 500 ng/mL FGF-2 and 200 ng/mL FGF-9 and subcutaneously injected into 3 month old C57/Bl6 mice. Mice were sacrificed and matrigel plugs were harvested 8 days after implantation and immunostained for CD31 (brown), to identify endothelial cell-lined microvessels.
CD31-positive microvessels immunostained in FIGS. 5B and 5C are quantified.

| Compound | SM α-actin coverage of CD31-positive vessels (Sonic Hedgehog signaling) | constriction of microvessels in response to phenylephrine (PE) and KCl [1] | percentage of microvessels supported by smooth muscle (SM) α-actin positive cells [2] [%] | SM α-actin positive cell coverage of CD31 nascent blood vessels [3] [%] | area of CD31-positive microvessels ([4]; matrigel plugs, 8 days after implantation) | angiogenesis, CD31 immunoreactivity inside the matrigel ([4]; plugs with 500 ng/mL FGF-9, 500 ng/mL FGF-2 or 500 ng/mL FGF-2 and 200 ng/mL FGF-9, harvested 8 days after implantation) |
| --- | --- | --- | --- | --- | --- | --- |
| CC1=C2C[C@H]3[C@@H](CC=C4C[C@@H](O)CC[C@@]43C)[C@@H]2CC[C@]12O[C@@H]1C[C@H](C)CN[C@H]1[C@H]2C [cyclopamine] | 38±4.8 |  |  |  |  |  |
| FGF-2: fibroblast growth factor 2, angiogenic polypeptide used as comparator and co-factor |  | mild if any response | 37±5.4 | 7.2±1.8 | equivalent levels of angiogenesis | induce angiogenesis |
